Test results: patent publication US20190274978A1, “ANTIBACTERIAL COMPOSITIONS” (priority 2016, published 2019)
Entries after “also recorded” stand apart in the source; their conditions may differ.

Experiments:
M. tuberculosis = details: de Carvalho et al. (2011); cited from earlier work
MRSA = details: Rajamuthiah et al. (2014, 2015); cited from earlier work
Enterococcus faecium = details: Rajamuthiah et al. (2015); cited from earlier work
Klebsiella pneumoniae [1] = details: Rajamuthiah et al. (2015), compound alone; cited from earlier work
Acinetobacter baumannii [2] = details: Rajamuthiah et al. (2015), compound alone; cited from earlier work
Pseudomonas aeruginosa [3] = details: Rajamuthiah et al. (2015), compound alone; cited from earlier work
Enterobacter aerogenes = details: Rajamuthiah et al. (2015), compound alone; cited from earlier work
Escherichia coli = assay: Antibiotic combination growth assay (384-well checkerboard, OD600)
Pseudomonas aeruginosa [4] = assay: as above
Salmonella enterica = assay: as above; assay type: cell-based; details: in conjunction with a polymyxin (polymyxin B or polymyxin E (colistin)); Serovar Typhimurium (SL1344); FIGS. 33-36
[5] = system: Mycobacterium tuberculosis; details: cited from earlier work
[6] = system: methicillin-resistant Staphylococcus aureus (MRSA); details: Lau et al. (2015), under the assay conditions used; cited from earlier work
[7] = system: quorum sensing system in Pseudomonas aeruginosa; details: among FDA-approved drugs tested, Imperi et al. (2013); cited from earlier work
P. aeruginosa = details: Imperi et al. (2013), FIG. 2A there; cited from earlier work
Gram negative bacteria = details: in combination with an efflux pump inhibitor (e.g. TolC efflux pump inhibitor); PCT/NZ2015/050192; cited from earlier work
macrophages = details: cited from earlier work
E. coli strain 7KO:roGFP = assay: Real-time measurement of intrabacterial redox potential (roGFP)
Procedure: (§1) Cells were fixed with N-ethylmaleimide at various time points post niclosamide incubation, and then passed through a flow cytometry system. The ImageStream recorded each individual cell and all images were processed automatically.
In vivo analysis of the intrabacterial redox potential was performed at 30° C. in a Synergy H1 Multimode plate reader (BioTek) with excitation measured at 405 and 480 nm and emission measured at 510 nm. Log phase bacterial cultures of 7KO:roGFP or 7KOΔtolC:roGFP were resuspended in 0.9% saline at OD 1.0, and 100 μL aliquots were loaded in individual wells of a black, clear-bottom 96-well plate. Background signals from the non-fluorescent (i.e., without pRSETB-RoGFP2) corresponding strain were obtained in the same experiment. Fluorescence signals were followed for 160-180 min, and the resulting 405/480 ratio signals were calculated. […] Reduced and oxidized controls were obtained within each experiment using a final concentration of 10 mM H2O2 or 1 mM DTT respectively.
Samples were analyzed by the AMNIS ImageStream as previously described (van der Heijden et al. (2015) Proc Natl Acad Sci USA 112, 560-565). The laser intensities for 405, 488, 658, and 785 nm were 100, 120, 20, and 3.8, respectively. The data files were further analyzed using IDEAS software, version 6.0.129.0, which is supplied by AMNIS. Bacterial cells were selected based on fluorescence at 660 nm. Every image of an infected cell was then selected by the program based on fluorescent intensity at 660 nm. Based on this selection, a mask was created that was used for analysis of the 405/480 nm ratio. The resulting 405/480 ratio signals were plotted in a histogram. Reduced and oxidized controls were obtained within each experiment, and all values were normalized to oxidized and reduced ratio values.
In vivo analysis of the intrabacterial redox potential was done at 30° C. in a Synergy H1 Multimode plate reader (BioTek) with excitation at 405 and 480 nm while emission was measured at 510 nm. Log phase bacterial cultures were resuspended in 0.9% saline at OD 1.0, and 200 μL per well were loaded in a black, clear-bottom 96-well plate. Background signals from the nonfluorescent corresponding strain were obtained in the same experiment.

[8] = system: E. coli strain 7KOΔtolC:roGFP; assay: as above; details: niclosamide alone in strain with in-frame deletion of tolC; FIG. 59
Procedure: as §1
In vivo analysis of the intrabacterial redox potential was performed at 30° C. in a Synergy H1 Multimode plate reader (BioTek) with excitation measured at 405 and 480 nm and emission measured at 510 nm. Log phase bacterial cultures of 7KO:roGFP or 7KOΔtolC:roGFP were resuspended in 0.9% saline at OD 1.0, and 100 μL aliquots were loaded in individual wells of a black, clear-bottom 96-well plate. Background signals from the non-fluorescent (i.e., without pRSETB-RoGFP2) corresponding strain were obtained in the same experiment. Fluorescence signals were followed for 160-180 min, and the resulting 405/480 ratio signals were calculated. […]
Samples were analyzed by the AMNIS ImageStream as previously described (van der Heijden et al. (2015) Proc Natl Acad Sci USA 112, 560-565). […] The data files were further analyzed using IDEAS software, version 6.0.129.0, which is supplied by AMNIS. Bacterial cells were selected based on fluorescence at 660 nm. […]
In vivo analysis of the intrabacterial redox potential was done at 30° C. in a Synergy H1 Multimode plate reader (BioTek) with excitation at 405 and 480 nm while emission was measured at 510 nm. […]

Klebsiella pneumoniae [9] = assay: Antibiotic combination growth assay (384-well checkerboard, OD600); details: in conjunction with a polymyxin (polymyxin B or polymyxin E (colistin)); antibiotic-resistant and laboratory strains; FIGS. 21-28
Enterobacter cloacae = assay: as above; details: in conjunction with a polymyxin (polymyxin B or polymyxin E (colistin)); subsp. cloacae ATCC 13047; FIGS. 29-32
Acinetobacter baumannii [10] = assay: as above; details: in conjunction with a polymyxin (polymyxin B or polymyxin E (colistin)); ATCC type strain 19606; FIGS. 37-40

Compound: CC(=O)Oc1ccccc1C(=O)Nc1ncc([N+](=O)[O-])s1 [nitazoxanide, 2-acetyloxy-N-(5-nitro 2-thiazolyl)benzamide]
- uncoupling of the membrane potential (M. tuberculosis): uncoupled the membrane potential

Compound: O=C(Nc1cc(Cl)cc(Cl)c1O)c1c(O)c(Cl)cc(Cl)c1Cl [oxyclozanide, 2,3,5-trichloro-N-(3,5-dichloro-2-hydroxyphenyl)-6-hydroxybenzamide]
- toxicity / activity against MRSA (MRSA): directly toxic
- toxicity to Enterococcus faecium (Enterococcus faecium): directly toxic
- inhibition of growth (Klebsiella pneumoniae [1]): neither niclosamide nor oxyclozanide were active
- inhibition of growth (Acinetobacter baumannii [2]): neither niclosamide nor oxyclozanide were active
- inhibition of growth (Pseudomonas aeruginosa [3]): neither niclosamide nor oxyclozanide were active
- inhibition of growth (Enterobacter aerogenes): neither niclosamide nor oxyclozanide were active

Compound: Cc1cc(C(C#N)c2ccc(Cl)cc2)c(Cl)cc1NC(=O)c1cc(I)cc(I)c1O (stereo not drawn) [closantel, N-[5-Chloro-4-[(4-chlorophenyl)-cyanomethyl]-2-methylphenyl]-2-hydroxy-3,5-diiodobenzamide]
- toxicity / activity against MRSA (MRSA): active

Compound: Gramicidin
- growth inhibition effect of the combination (Escherichia coli; gramicidin with niclosamide, E. coli laboratory strain W3110, FIGS. 41-42): synergistic growth inhibition effect
- growth inhibition effect of the combination (Pseudomonas aeruginosa [4]; gramicidin with niclosamide, antibiotic-resistant clinical isolate (NZ isolate AR 00/537), FIGS. 43-44): synergistic growth inhibition effect

Compound: O=C(Nc1ccc([N+](=O)[O-])cc1Cl)c1cc(Cl)ccc1O [niclosamide, N-(2′-chloro-4′-nitrophenyl)-5-chlorosalicylamide]
- growth inhibition effect of the combination (Salmonella enterica): synergistic growth inhibition effect
- MIC ([5]; Sun and Zhang (1999)): 0.5 to 1.0 µg/mL
- activity against non-replicating M. tuberculosis ([5]; grown in low oxygen conditions): active
- uncoupling of the membrane potential (M. tuberculosis): uncoupled the membrane potential
- minimum inhibitory concentration [6]: sub-micromolar
- toxicity / activity against MRSA (MRSA): directly toxic
- toxicity to Enterococcus faecium (Enterococcus faecium): directly toxic
- inhibition of growth (Klebsiella pneumoniae [1]): neither niclosamide nor oxyclozanide were active
- inhibition of growth (Acinetobacter baumannii [2]): neither niclosamide nor oxyclozanide were active
- inhibition of growth (Pseudomonas aeruginosa [3]): neither niclosamide nor oxyclozanide were active
- inhibition of growth (Enterobacter aerogenes): neither niclosamide nor oxyclozanide were active
- anti-quorum sensing activity [7]: highest anti-quorum sensing activity
- inhibition of growth (P. aeruginosa): failed to inhibit the growth
- direct toxicity to Gram negative bacteria (Gram negative bacteria): directly toxic
- toxicity against macrophages (macrophages): did observe toxicity
- intracellular redox stress (405/480 nm ratio) (E. coli strain 7KO:roGFP; 1 μM niclosamide in combination with 0.5 μM colistin, FIG. 60 C): irreversible increase in intracellular redox stress
- intracellular redox stress (405/480 nm ratio) (E. coli strain 7KO:roGFP; 1 μM niclosamide in combination with 0.5 μM polymyxin B, FIG. 60 D): irreversible increase in intracellular redox stress
- intracellular redox stress (405/480 nm ratio) (E. coli strain 7KO:roGFP; 1 μM niclosamide in combination with 25 μM PAβN (TolC efflux pump inhibitor), FIG. 60 B): irreversible increase in intracellular redox stress
- intracellular redox stress (405/480 nm ratio) (E. coli strain 7KO:roGFP; niclosamide alone, FIG. 59): did not experience significant redox stress
- intracellular redox stress (405/480 nm ratio) [8]: experienced increasing redox stress; also recorded: irreversible increase in intracellular redox stress
- growth inhibition effect of the combination (Escherichia coli; in conjunction with a polymyxin (polymyxin B or polymyxin E (colistin)), antibiotic-resistant and laboratory strains, FIGS. 1-12): synergistic growth inhibition effect
- growth inhibition effect of the combination (Pseudomonas aeruginosa [4]; in conjunction with a polymyxin (polymyxin B or polymyxin E (colistin)), antibiotic-resistant and laboratory strains, FIGS. 13-20): synergistic growth inhibition effect
- growth inhibition effect of the combination (Klebsiella pneumoniae [9]): synergistic growth inhibition effect
- growth inhibition effect of the combination (Enterobacter cloacae): synergistic growth inhibition effect
- growth inhibition effect of the combination (Acinetobacter baumannii [10]): synergistic growth inhibition effect

Compound: O=[N+]([O-])c1ccc(O)c([N+](=O)[O-])c1 [2,4-dinitrophenol]
- synergistic effect in combination with colistin (Escherichia coli; with colistin, E. coli MG1655, FIGS. 45, 46, 53-58): only weak synergistic effect
